This is an account of results in patent US12084444B2, “Spiro-lactam NMDA modulators and methods of using same” (Tenacia Biotechnology (Hong Kong) Co., Limited, priority 2016, dated 2024).

Assay [1] concerns the target T1, NMDAR2D expressing HEK cell membranes (Homo sapiens, UniProt O15399+Q05586).
T1 construct: expressed in transfected cells; host or cells: HEK cells (membrane extract)
Nature of the assay: NMDAR agonist assay, [3H]MK-801 binding, NMDAR2D. The class given is biochemical. The following applies: 50 μM glutamate; read-out: NMDAR2D B: log EC50 (converted). The protocol: (§1) Assays were conducted as described by Moskal et al., “GLYX-13: a monoclonal antibody-derived peptide that acts as an N-methyl-D-aspartate receptor modulator,” Neuropharmacology, 49, 1077-87, 2005. These studies were designed to determine if the test compounds act to facilitate NMDAR activation in NMDAR2A, NMDAR2B, NMDAR2C or NMDAR2D expressing HEK cell membranes as measured by increases in [^3H]MK-801 binding.
(§2) In the assay, 300 μg of NMDAR expressing HEK cell membrane extract protein was preincubated for 15 minutes at 25° C. in the presence of saturating concentrations of glutamate (50 μM) and varying concentrations of test compound (1×10^−15 M-1×10^−7 M), or 1 mM glycine. Following the addition of 0.3 μCi of [^3H]MK-801 (22.5 Ci/mmol), reactions were again incubated for 15 minutes at 25° C. (nonequilibrium conditions). Bound and free [^3H]MK-801 were separated via rapid filtration using a Brandel apparatus.
(§3) In analyzing the data, the DPM (disintegrations per minute) of [^3H]MK-801 remaining on the filter were measured for each concentration of test compound or for 1 mM glycine. The DPM values for each concentration of a ligand (N=2) were averaged. The baseline value was determined from the best fit curve of the DPM values modeled using the GraphPad program and the log(agonist) vs. response(three parameters) algorithm was then subtracted from all points in the dataset. The % maximal [^3H]MK-801 binding was then calculated relative to that of 1 mM glycine: all baseline subtracted DPM values were divided by the average value for 1 mM glycine. The EC50 and % maximal activity were then obtained from the best fit curve of the % maximal [^3H]MK-801 binding data modelled using the GraphPad program and the log(agonist) vs. response(three parameters) algorithm.
The tables below summarize the results for the wild type NMDAR agonists NMDAR2A, NMDAR2B, NMDAR2C, and NMDAR2D, and whether the compound is not an agonist (−), is an agonist (+), or is a strong agonist (++), where column A is based on the % maximal [^3H]MK-801 binding relative to 1 mM glycine (−=0; <100%=+; and >100%=++); and column B is based on log EC50 values (0=−; ≥1×10^−9 M (e.g., −8)=+; and <1×10^−9 M (e.g., −10)=++).

Assay [2] has as its system rats. Description: Positive emotional learning (PEL) test, 50-kHz ultrasonic vocalizations. Type of assay: in vivo, rat. The following applies: dose range 0.001-1 mg/kg, orally; tested one hour after administration. The protocol:
Experiments were conducted as described in Burgdorf et al., “The effect of selective breeding for differential rates of 50-kHz ultrasonic vocalizations on emotional behavior in rats,” Devel. Psychobiol., 51:34-46 (2009). Rat 50-kHz ultrasonic vocalization (hedonic USVs) is a validated model for the study of positive affective state and is best elicited by rough-and-tumble play.
The PEL assay measures the acquisition of positive (hedonic) 50-kHz ultrasonic vocalizations (USVs) to a social stimulus, heterospecific rough and tumble play stimulation. Heterospecific rough-and-tumble play stimulation was administered by the experimenter's right hand. […] High frequency ultrasonic vocalizations (USVs) were recorded and analyzed by sonogram with Avasoft SASlab Pro (Germany) as previously described by Burgdorf et al., “Positive emotional learning is regulated in the medial prefrontal cortex by GluN2B-containing NMDA receptors,” Neuroscience, 192:515-523 (2011). Frequency modulated 50-kHz USVs that occurred during each of the no-stimulation periods were quantified to measure PEL. […] Positive emotional learning was measured during the conditioned stimulus (CS) trials preceding the tickle unconditioned stimulus (UCS) trials. […]

The test system of assay [3] is Sprague Dawley rats. Description: Porsolt forced swim test. The following applies: 0.1 mg/kg; for % reduction in float time: relative to vehicle group. The class given is in vivo. As for the experimental part: A non-clinical in vivo pharmacology study (Porsolt assay) was performed to measure antidepressant-like effects. A negative control (0.5% sodium carboxymethyl cellulose in 0.9% sterile saline vehicle) and a positive control (fluoxetine) are shown for comparison against test compound. The study allowed for the evaluation of the effects of each compound on the Porsolt forced swim test as assessed by the rats' response (reduced floating time) during a 5-minute swimming test.
Male 2-3 month old Sprague Dawley rats were used (Harlan, Indianapolis, IN). Rats were housed in Lucite cages with aspen wood chip bedding, maintained on a 12:12 light:dark cycle (lights on at 5 AM), and given ad libitum access to Purina lab chow (USA) and tap water throughout the study.
The Porsolt forced swim test adapted for use in rats was performed as described by Burgdorf et al., (The long-lasting antidepressant effects of rapastinel (GLYX-13) are associated with a metaplasticity process in the medial prefrontal cortex and hippocampus. Neuroscience 308:202-211, 2015). Animals were placed in a 46 cm tall×20 cm in diameter clear glass tube filled to 30 cm with tap water (23±1° C.) for 15 min on the first day (habituation) and 5 min on the subsequent test day. Positive control fluoxetine was dosed 3 times (24 h, 5 h and 1 h) prior to testing. Animals were tested 1 h or 24 h post-dosing with the test compounds or vehicle. Animals received a 15 min habituation session 1 day before the 5 min test. Water was changed after every other animal. Animals were videotaped, and floating time as defined as the minimal amount of effort required to keep the animals head above water was scored offline by a blinded experimenter with high inter-rater reliability (Pearson's r>0.9).
Each compound tested at dose level shown. Significance vs. vehicle group for each experiment is marked. […] A compound marked “No” was not statistically significant from vehicle. Data was averaged for test compound and vehicle groups (N approximately 8 per group) and the percent reduction in floating for group treated with test compound relative to group treated with vehicle is shown.

Assay [4] addresses T2, NMDAR2C expressing HEK cell membranes (Homo sapiens, UniProt Q14957).
T2 construct: expressed in transfected cells; host or cells: HEK cells (membrane extract)
Description: NMDAR agonist assay, [3H]MK-801 binding, NMDAR2C. The class given is biochemical. The following applies: 50 μM glutamate. The protocol: as §1, §2
as §3, with “algorithm. […]” for “algorithm.”

Assay [5] has as its target T3, NMDAR2B expressing HEK cell membranes (Homo sapiens, UniProt Q05586+Q13224).
T3 construct: expressed in transfected cells; host or cells: HEK cells (membrane extract)
Description: NMDAR agonist assay, [3H]MK-801 binding, NMDAR2B. Type of assay: biochemical. To be noted: 50 μM glutamate. In short, it runs like this: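 HEK membranes (300 μg protein) expressing each subtype were preincubated 15 min at 25 °C with 50 μM glutamate and compound (1×10^−15–1×10^−7 M) or 1 mM glycine. [3H]MK-801 (0.3 μCi) binding then ran 15 min under nonequilibrium conditions, followed by filtration. EC50 and % maximal binding against 1 mM glycine came from three-parameter fits of baseline-subtracted DPM (N=2).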

T3 sequence (Q13224 27-1484, other chains not shown): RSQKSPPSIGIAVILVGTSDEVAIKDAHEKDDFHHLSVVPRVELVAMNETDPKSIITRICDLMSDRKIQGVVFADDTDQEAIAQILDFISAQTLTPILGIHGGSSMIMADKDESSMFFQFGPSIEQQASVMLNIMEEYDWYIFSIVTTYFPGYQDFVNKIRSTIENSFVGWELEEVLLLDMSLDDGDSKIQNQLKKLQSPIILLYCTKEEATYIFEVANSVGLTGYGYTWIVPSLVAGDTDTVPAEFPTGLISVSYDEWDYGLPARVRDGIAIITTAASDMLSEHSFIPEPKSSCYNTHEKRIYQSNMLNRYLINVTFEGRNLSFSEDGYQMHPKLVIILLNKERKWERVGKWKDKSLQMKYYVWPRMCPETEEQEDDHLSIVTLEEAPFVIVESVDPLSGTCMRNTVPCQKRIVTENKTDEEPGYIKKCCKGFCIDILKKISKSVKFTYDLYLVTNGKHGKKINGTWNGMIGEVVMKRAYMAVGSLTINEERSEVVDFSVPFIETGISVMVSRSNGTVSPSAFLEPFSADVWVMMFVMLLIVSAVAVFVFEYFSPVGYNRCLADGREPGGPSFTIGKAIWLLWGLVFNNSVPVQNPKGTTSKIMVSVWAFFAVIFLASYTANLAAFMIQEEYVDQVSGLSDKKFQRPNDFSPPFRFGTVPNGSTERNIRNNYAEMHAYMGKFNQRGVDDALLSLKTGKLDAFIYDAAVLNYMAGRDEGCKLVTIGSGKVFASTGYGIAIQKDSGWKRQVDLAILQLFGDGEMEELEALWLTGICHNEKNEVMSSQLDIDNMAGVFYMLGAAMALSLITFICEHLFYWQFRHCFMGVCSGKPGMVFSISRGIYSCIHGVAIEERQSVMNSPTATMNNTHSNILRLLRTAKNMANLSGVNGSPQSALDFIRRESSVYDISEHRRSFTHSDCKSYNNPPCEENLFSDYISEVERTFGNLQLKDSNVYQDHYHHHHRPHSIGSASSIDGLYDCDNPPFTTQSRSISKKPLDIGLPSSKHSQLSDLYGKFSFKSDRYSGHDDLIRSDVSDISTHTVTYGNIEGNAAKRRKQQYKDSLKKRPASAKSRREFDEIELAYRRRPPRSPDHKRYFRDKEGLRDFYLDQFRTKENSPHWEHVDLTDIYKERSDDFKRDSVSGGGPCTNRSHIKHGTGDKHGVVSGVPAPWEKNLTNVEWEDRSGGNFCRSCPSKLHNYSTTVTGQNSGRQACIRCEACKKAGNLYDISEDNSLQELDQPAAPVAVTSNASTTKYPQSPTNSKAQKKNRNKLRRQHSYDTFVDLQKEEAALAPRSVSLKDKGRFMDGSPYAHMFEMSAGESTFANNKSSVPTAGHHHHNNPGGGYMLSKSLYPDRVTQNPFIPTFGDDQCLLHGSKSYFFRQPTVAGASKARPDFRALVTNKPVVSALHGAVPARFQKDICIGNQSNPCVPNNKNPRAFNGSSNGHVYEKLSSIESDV
T2 sequence (Q14957 20-1233, other chains not shown): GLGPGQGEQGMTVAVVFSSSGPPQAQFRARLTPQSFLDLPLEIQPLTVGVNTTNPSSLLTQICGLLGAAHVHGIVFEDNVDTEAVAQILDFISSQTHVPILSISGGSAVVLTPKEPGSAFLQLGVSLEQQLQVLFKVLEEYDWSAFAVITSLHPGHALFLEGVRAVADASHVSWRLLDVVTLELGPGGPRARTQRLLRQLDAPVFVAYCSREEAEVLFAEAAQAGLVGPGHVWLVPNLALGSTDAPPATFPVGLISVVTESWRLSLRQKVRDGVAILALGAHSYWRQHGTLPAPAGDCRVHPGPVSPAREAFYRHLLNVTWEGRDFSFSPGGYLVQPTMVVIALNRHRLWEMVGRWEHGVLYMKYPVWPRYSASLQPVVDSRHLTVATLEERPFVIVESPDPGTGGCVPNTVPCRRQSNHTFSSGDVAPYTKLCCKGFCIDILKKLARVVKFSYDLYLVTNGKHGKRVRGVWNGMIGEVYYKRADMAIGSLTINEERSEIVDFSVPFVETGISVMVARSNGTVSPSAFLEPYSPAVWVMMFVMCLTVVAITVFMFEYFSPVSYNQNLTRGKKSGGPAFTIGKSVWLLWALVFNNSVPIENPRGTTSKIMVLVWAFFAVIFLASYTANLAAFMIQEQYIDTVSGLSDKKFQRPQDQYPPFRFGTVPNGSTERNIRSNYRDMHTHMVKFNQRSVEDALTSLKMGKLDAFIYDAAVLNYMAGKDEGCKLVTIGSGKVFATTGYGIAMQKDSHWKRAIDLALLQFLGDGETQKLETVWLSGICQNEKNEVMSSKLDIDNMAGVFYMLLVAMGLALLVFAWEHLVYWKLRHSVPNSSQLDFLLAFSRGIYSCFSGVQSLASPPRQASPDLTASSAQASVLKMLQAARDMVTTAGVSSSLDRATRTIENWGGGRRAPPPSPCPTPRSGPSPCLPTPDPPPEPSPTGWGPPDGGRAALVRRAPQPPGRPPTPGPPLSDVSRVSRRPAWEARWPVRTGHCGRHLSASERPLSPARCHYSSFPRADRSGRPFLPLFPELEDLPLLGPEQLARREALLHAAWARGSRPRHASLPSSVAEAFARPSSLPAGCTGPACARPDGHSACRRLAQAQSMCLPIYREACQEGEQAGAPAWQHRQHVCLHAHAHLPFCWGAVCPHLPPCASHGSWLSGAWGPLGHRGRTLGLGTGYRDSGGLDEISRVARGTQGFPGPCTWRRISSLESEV
T1 sequence (O15399 28-1336, other chains not shown): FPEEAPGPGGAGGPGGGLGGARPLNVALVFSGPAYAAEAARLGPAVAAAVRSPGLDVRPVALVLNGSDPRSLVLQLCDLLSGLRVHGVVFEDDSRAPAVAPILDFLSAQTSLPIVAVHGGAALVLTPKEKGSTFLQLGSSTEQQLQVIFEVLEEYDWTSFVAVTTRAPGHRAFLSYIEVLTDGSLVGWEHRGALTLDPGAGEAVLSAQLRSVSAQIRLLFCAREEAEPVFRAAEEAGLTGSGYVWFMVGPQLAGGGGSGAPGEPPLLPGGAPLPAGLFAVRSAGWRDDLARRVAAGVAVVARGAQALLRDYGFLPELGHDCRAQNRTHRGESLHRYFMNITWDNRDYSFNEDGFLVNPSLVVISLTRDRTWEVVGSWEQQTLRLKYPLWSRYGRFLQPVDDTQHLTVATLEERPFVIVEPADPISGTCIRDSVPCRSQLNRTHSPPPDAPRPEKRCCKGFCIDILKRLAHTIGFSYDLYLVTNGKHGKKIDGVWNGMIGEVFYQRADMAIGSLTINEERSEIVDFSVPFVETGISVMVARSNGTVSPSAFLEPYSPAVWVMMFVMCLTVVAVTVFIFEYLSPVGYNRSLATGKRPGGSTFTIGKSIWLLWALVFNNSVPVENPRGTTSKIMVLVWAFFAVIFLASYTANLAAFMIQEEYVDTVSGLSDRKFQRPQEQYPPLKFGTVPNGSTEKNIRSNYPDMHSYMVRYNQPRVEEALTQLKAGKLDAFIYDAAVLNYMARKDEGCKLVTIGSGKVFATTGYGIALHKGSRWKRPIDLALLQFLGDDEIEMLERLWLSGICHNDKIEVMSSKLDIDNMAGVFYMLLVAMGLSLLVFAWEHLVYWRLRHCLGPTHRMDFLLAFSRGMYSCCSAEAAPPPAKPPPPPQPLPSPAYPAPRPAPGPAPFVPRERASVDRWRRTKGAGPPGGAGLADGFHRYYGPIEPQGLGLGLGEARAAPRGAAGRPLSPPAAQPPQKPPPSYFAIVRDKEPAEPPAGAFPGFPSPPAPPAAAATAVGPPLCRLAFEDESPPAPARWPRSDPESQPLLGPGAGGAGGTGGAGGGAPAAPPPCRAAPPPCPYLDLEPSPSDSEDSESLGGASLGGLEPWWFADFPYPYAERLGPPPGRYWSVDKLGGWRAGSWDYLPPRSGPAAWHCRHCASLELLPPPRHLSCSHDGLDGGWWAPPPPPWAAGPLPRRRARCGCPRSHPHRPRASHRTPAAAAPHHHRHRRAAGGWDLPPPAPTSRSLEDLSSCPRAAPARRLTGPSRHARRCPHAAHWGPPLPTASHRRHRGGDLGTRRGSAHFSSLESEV

Turning to `COc1ccc(CN2C[C@@]3(CCNC(=O)C3)C2=O)cc1` [Compound AA-2, 2-(4-methoxybenzyl)-2,7-diazaspiro[3.5]nonane-1,6-dione], the EC50 in assay [1] and in assay [5] (read-out: NMDAR2B B: log EC50 (converted)) was under 1 nM each time. The “maximum effect, mean number of 50 kHz USVs per 15 seconds” value in assay [2] was 10.1-20 50 kHz USVs per 15 seconds. Besides, the Significance vs. vehicle result in assay [3] (1 h post-dose) and in assay [3] (24 h post-dose) was “Yes (found to be statistically significant (p<=0.05) from vehicle at dose level shown)” each time. Further, the results for the “% reduction in float time” value in assay [3] (1 h post-dose) and in assay [3] (24 h post-dose) were 51.5% and 77.80%, respectively. The “NMDAR2C A: % maximal [3H]MK-801 binding relative to 1 mM glycine” value in assay [4] is recorded as “− (−=0)”. The Emax in assay [5] (0.25 h, read-out: NMDAR2B A: % maximal [3H]MK-801 binding relative to 1 mM glycine) was under 100%.
